# Test results published in PMC2706308 (Biochimica et biophysica acta, 2009).
# Where a SMILES comes first, the peptide text is derived from it. The star is where a group is joined. Cbz = O=C(OCc1ccccc1)*
# Molecular target: 20S proteasome (rat liver) (Rattus norvegicus, UniProt P18421+P28075)
# Experiment: inhibition of suc-LLVY-AMC hydrolysis
# Format: biochemical
# Details: read-out: % inhibition at 10 uM
smiles,measurement,value
CC(C)C[C@@H](C=O)NC(=O)[C@H](CC(C)C)NC(=O)[C@H](CC(C)C)NC(=O)OCc1ccccc1 [MG-132] (Cbz-Leu-Leu-Leu-aldehyde),inhibition at 10 µM,90%
